Experimental data taken from ChEMBL document CHEMBL1201862, “PubChem BioAssay data set” (2004).
Calls of active or inactive are those of the source. Rule as the data show it, for most assays here: actives have a measured IC50 and inactives only a lower limit.

Key:
[1] = molecular target: T1, Adenosylmethionine-8-amino-7-oxononanoate aminotransferase (Mycobacterium tuberculosis, UniProt P9WQ81); experiment: Mycobacterium tuberculosis BioA enzyme inhibitor Measured in Biochemical System Using Plate Reader - 2163-02_Inhibitor_Dose_CherryPick_Activity.; type: functional, Mycobacterium tuberculosis UT205
T1 sequence (P9WQ81 whole entry): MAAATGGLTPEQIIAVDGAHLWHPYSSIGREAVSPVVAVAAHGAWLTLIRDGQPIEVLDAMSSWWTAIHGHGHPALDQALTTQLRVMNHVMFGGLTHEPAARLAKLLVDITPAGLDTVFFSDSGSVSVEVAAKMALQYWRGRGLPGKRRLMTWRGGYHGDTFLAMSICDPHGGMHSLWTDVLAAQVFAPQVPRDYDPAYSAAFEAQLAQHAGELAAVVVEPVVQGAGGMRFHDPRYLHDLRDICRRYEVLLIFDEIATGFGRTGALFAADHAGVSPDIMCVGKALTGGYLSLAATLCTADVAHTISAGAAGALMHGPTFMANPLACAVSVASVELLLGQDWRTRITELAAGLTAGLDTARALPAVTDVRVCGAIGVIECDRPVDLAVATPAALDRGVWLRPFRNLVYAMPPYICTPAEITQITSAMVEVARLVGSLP

Hexokinase HKDC1 = molecular target: T2, Hexokinase HKDC1 (Homo sapiens, UniProt Q2TB90); experiment: HKDC1 hexokinase inhibitors, dose response, biochemical, W721R variant (AID 504729); type: functional
T2 sequence (Q2TB90 whole entry): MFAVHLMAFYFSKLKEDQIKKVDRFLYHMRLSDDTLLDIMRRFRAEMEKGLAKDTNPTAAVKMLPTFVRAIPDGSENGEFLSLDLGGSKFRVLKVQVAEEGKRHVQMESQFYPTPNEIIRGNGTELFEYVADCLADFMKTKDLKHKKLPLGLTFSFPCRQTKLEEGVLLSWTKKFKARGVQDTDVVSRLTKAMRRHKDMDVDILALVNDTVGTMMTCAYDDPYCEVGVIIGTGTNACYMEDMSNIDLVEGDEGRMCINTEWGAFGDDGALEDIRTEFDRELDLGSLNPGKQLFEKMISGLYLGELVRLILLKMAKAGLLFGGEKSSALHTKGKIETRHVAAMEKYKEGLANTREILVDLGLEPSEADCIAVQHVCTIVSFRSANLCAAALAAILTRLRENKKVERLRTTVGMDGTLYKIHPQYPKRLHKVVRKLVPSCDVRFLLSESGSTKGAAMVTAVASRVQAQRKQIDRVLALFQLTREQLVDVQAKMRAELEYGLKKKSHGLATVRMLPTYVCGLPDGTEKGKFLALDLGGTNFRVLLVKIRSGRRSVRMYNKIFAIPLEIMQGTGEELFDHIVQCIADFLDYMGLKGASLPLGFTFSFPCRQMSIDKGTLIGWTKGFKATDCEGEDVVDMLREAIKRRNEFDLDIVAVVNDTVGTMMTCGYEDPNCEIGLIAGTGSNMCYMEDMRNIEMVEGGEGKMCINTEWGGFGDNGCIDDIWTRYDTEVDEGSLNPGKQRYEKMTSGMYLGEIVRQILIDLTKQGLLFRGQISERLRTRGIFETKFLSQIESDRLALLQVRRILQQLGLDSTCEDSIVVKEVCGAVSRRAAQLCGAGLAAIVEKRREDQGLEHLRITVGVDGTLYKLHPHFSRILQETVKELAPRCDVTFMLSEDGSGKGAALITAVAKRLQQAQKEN

[2] = molecular target: T3, Dual specificity protein phosphatase 3 (Homo sapiens, UniProt P51452); experiment: VHR1 inhibitor Ki determination, SAR follow-up, biochemical, colorimetric (AID 2004)
T3 sequence (P51452 whole entry): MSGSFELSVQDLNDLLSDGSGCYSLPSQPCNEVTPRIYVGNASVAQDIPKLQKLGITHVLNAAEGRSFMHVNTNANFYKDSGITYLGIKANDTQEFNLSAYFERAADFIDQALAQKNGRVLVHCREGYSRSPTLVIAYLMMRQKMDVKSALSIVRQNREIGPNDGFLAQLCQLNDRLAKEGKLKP

[3] = molecular target: T3, Dual specificity protein phosphatase 3; experiment: SAR VHR1 Fluorescent Assay for In Vitro dose response studies. [Related pubchem assays (depositor defined):AID1654, AID1661, AID1878, AID1992, AID2004, AID2070, AID2085]; type: functional
[4] = molecular target: Glyceraldehyde-3-phosphate dehydrogenase (Homo sapiens, UniProt P04406)
Sequence of Glyceraldehyde-3-phosphate dehydrogenase (P04406 whole entry): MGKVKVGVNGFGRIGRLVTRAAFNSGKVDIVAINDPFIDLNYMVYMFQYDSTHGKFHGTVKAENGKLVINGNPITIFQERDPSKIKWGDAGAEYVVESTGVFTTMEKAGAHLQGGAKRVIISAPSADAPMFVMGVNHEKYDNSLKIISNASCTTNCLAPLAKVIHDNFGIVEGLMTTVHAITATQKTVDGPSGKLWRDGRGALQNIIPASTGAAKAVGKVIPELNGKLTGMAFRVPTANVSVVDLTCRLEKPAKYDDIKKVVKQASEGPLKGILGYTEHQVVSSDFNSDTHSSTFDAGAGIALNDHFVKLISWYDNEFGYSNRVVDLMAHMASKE

[5] = molecular target: T4, Tyrosine-protein phosphatase non-receptor type 7 (Homo sapiens, UniProt P35236); type: functional
T4 sequence (P35236 whole entry): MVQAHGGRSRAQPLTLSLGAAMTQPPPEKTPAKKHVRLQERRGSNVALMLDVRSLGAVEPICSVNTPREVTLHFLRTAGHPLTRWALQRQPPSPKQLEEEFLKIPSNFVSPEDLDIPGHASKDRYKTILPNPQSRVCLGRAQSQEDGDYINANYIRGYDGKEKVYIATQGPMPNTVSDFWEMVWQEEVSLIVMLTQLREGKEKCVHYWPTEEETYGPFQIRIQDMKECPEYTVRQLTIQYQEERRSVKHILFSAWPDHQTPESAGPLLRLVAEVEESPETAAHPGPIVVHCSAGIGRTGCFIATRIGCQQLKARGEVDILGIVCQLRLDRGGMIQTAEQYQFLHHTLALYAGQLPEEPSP

[6] = molecular target: T5, Dual specificity protein phosphatase 6 (Rattus norvegicus, UniProt Q64346)
T5 sequence (Q64346 whole entry): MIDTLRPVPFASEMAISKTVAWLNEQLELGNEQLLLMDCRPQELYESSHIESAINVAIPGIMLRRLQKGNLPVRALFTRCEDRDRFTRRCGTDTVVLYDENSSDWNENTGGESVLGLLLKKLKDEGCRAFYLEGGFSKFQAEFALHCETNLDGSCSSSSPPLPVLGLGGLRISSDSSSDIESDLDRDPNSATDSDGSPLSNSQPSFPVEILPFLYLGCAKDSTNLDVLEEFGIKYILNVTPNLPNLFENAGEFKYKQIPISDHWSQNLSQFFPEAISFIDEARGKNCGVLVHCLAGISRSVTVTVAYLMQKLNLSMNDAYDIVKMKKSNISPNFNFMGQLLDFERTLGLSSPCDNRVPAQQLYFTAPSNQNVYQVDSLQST

[7] = molecular target: T5, Dual specificity protein phosphatase 6; type: functional
[8] = molecular target: T4, Tyrosine-protein phosphatase non-receptor type 7; experiment: redox-dependent HePTP inhibition, mechanism study, biochemical, fluorescence (AID 2068); type: functional
[9] = molecular target: T3, Dual specificity protein phosphatase 3; experiment: MOA VHR1 Fluorescent secondary assay for identification of redox-state modulating compounds. [Related pubchem assays (depositor defined):AID1654, AID1661, AID1878, AID1957]
[10] = molecular target: Acyl-homoserine lactone acylase PvdQ (Pseudomonas aeruginosa (strain LESB58), UniProt Q9I194); experiment: P. aeruginosa PvdQ acylase inhibitors, dose response, biochemical, fluorescence, plate reader and imaging, cherry-picks (AID 493231)
Sequence of Acyl-homoserine lactone acylase PvdQ (Q9I194 24-193 limits assumed): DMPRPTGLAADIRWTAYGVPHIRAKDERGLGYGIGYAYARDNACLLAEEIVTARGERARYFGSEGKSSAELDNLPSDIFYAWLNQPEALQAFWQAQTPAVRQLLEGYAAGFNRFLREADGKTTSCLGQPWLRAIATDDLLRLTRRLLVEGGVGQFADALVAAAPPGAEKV
Sequence of Acyl-homoserine lactone acylase PvdQ (Q9I194 217-762 limits assumed): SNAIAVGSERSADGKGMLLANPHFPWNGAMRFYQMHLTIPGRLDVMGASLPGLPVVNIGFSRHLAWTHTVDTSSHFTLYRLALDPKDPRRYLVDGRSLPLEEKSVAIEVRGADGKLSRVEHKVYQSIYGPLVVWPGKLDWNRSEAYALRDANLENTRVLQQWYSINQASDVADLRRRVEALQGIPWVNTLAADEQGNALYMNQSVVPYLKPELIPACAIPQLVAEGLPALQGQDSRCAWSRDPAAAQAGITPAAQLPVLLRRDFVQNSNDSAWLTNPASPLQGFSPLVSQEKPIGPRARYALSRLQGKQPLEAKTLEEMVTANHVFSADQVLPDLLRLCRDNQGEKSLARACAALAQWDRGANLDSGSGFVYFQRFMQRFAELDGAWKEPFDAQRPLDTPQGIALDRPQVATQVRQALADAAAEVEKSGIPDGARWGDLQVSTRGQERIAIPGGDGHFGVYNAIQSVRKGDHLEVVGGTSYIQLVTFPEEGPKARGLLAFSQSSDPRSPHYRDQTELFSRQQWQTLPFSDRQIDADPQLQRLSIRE

## O=C(CSc1nnc(-c2cccnc2)[nH]1)Nc1ccnc2ccccc12
[1]
  AC50: 6.07 µM (active)
Hexokinase HKDC1
  IC50: 13.1 µM (active)

## COc1ccccc1CC(=N)NOC(=O)c1ccco1
[2]
  Ki: 48.4 µM (inactive)

## O=c1/c(=C/c2ccco2)sc2nc3cc(Br)cnc3n12
[3]
  IC50: 1.23 µM (active)
[4]
  IC50: 27.8 µM (active)
[5]
  IC50: 0.543 µM (active)
[6]
  IC50: 4.4 µM (active)
[7]
  IC50: 6.58 µM (active)
[8]
  IC50: 0.127 µM (active)
[9]
  IC50: 0.345 µM (active)

## N#CC(c1ccc(Cl)cc1)c1cccc(Cl)n1 (stereo unspecified)
[10]
  AC50: 0.5 µM (active)
